Data reported in PubChem BioAssay AID2060898 (Molecular Pharmacology Branch, DTP, NCI, 2025).
“And” between values parts separate entries of the source, which are not always exact repeats. Identical values can stand only once. One block for each compound: values may come before it.

Test system: 616215-338-R-J1-PDC complex spheroid viability
Assay: Anticancer human tumor 616215-338-R-J1-PDC patient-derived colon adenocarcinoma cell line growth inhibition [RAS]
Settings: for viability, T/C: stronger effect = lower value
Excerpt: RAS pathway inhibitors in Combinations in Complex Spheroids
A high-throughput screen of multi-cell type tumor spheroids was designed to identify active combinations of RAS pathway inhibitors and targeted small molecules. Complex spheroids include a stromal component modeled by human endothelial cells (HUVEC) and fibroblasts modeled by human mesenchymal stem cells (MSCs). The concentration ranges selected for each drug and investigational agent were based upon clinically achievable concentrations if the clinical Cmax of the agent was known.
Compounds. The drugs and investigational agents: abemaciclib (NSC768073), cobimetinib (NSC768068), divarasib (GDC6063, NSC841802), docetaxel (NSC628503), GDC-1971 (RLY-1971, NSC841576), gemcitabine (NSC613327), inavolisib (NSC800729), ipatasertib (NSC767898), KB-0742 (NSC834161), MRTX-1133 (NSC836407), osimertinib (NSC779217), RMC-4630 (NSC839698), RMC-6236 (NSC851965), RMC-6291 (NSC852671), Ro-3306 (NSC812927), sapanisertib (NSC764658), SN-38 (NSC673596), staurosporine (NSC755774), SY5609 (NSC837396), and tovorafenib (DAY101, NSC766906), were obtained from the National Cancer Institute (NCI) Developmental Therapeutics Program Chemical Repository. The FDA-approved anticancer drug set is available from the NCI Developmental Therapeutics Program. […] The stock solutions were prepared in dimethyl sulfoxide (DMSO, Sigma-Aldrich, St. Louis, MO, cat. D2650) at 800-fold the tested concentration and stored at -70 degrees C prior to their use. All drugs and investigational agents were tested over a range starting from a high concentration at or near the clinical Cmax and decreasing in half-log increments. If the clinical Cmax for an agent had not been determined, the highest concentration tested was 10 microM.
Cell Culture. All cells were maintained in an incubator at 37 degrees C and 5% CO2 with 95% humidity. The PDC lines were cultured according to standard operating procedures established by the NCI PDMR. All PDCs were thawed and cultured in Matrigel-coated flasks prepared with a working solution of 1X Ham's F-12 nutrient mix, without supplementation (Invitrogen, Waltham, MA, cat. 11765054), 100 U/mL penicillin-streptomycin (Invitrogen, cat. 15140122), and 2.5% Matrigel (Corning Inc., Corning, NY, cat. 354248) for the first three passages. The 362531-283-R-J2-PDC and 782815-120-R-J1-PDC lines were cultured in 6C/Colon 1B media, which includes advanced DMEM/F-12 (Thermo Fisher Scientific, cat. 12634028), 10 mM HEPES (Thermo Fisher Scientific, cat. 15630080), 1X GlutaMAX supplement (Thermo Fisher Scientific, cat. 35050061), 0.1 mg/mL primocin (InvivoGen, San Diego, CA, cat. ant-pm-2), 10% defined fetal bovine serum, heat inactivated (HyClone Laboratories Inc., Logan, UT, cat. SH30070.03HI), 50% L-WRN conditioned media (ATCC, cat. CRL-3276), 1.25 mM N-Acetyl-L-cysteine (Sigma-Aldrich, cat. A9165), 10 mM nicotinamide (Sigma-Aldrich, cat. N0636), 1X B-27 supplement (Thermo Fisher Scientific, cat. 17504044), 1X N-2 supplement (Thermo Fisher Scientific, cat. 17502048), 50 ng/mL human EGF (Thermo Fisher Scientific, cat. PHG0311), and 10 microM Y-27632 dihydrochloride (Tocris Bioscience, cat. 1254). The K12877-001-R-J1-PDC line was cultured in 6I media, which includes all 6C/Colon 1B media plus 10 ng/mL human FGF-10 (PeproTech, cat. 100-26), 1 ng/mL human FGF-2 (PeproTech, cat. 100-18B), 1 µM prostaglandin E2 (Tocris Bioscience, cat. 2296), […] hydrocortisone (Sigma-Aldrich, cat. H4001), and […] bovine insulin (Sigma-Aldrich, cat. I6634). The K86415-001-R-J1-PDC line was cultured in 6D media, which includes all 6C/Colon 1B media components minus the L-WRN conditioned media. The 485176-168-R4-J1-PDC was cultured in PANC media, which includes all 6C/Colon 1B media plus 100 ng/mL human FGF-10 (PeproTech, cat. 100-26), 500 nM SB-431542 (Selleckchem, cat. S1067), and 10 nM gastrin (Tocris Bioscience, cat. 3006). […]

[1] = curve of first compound, second compound 0.0316 µM
[2] = curve of first compound, second compound 0.1 µM
[3] = curve of first compound, second compound 0.316 µM
[4] = curve of first compound, second compound 1 µM
[5] = curve of first compound, second compound 3.16 µM
[6] = curve of first compound, second compound 10 µM
[7] = second compound 0.0316 µM, first compound 0.00316 µM
[8] = second compound 0.0316 µM, first compound 0.01 µM
[9] = second compound 0.0316 µM, first compound 0.0316 µM
[10] = second compound 0.0316 µM, first compound 0.1 µM
[11] = second compound 0.0316 µM, first compound 0.316 µM
[12] = second compound 0.0316 µM, first compound 1 µM
[13] = second compound 0.1 µM, first compound 0.00316 µM
[14] = second compound 0.1 µM, first compound 0.01 µM
[15] = second compound 0.1 µM, first compound 0.0316 µM
[16] = second compound 0.1 µM, first compound 0.1 µM
[17] = second compound 0.1 µM, first compound 0.316 µM
[18] = second compound 0.1 µM, first compound 1 µM
[19] = second compound 0.316 µM, first compound 0.00316 µM
[20] = second compound 0.316 µM, first compound 0.01 µM
[21] = second compound 0.316 µM, first compound 0.0316 µM
[22] = second compound 0.316 µM, first compound 0.1 µM
[23] = second compound 0.316 µM, first compound 0.316 µM
[24] = second compound 0.316 µM, first compound 1 µM
[25] = second compound 1 µM, first compound 0.00316 µM
[26] = second compound 1 µM, first compound 0.01 µM
[27] = second compound 1 µM, first compound 0.0316 µM
[28] = second compound 1 µM, first compound 0.1 µM
[29] = second compound 1 µM, first compound 0.316 µM
[30] = second compound 1 µM, first compound 1 µM
[31] = second compound 3.16 µM, first compound 0.00316 µM
[32] = second compound 3.16 µM, first compound 0.01 µM
[33] = second compound 3.16 µM, first compound 0.0316 µM
[34] = second compound 3.16 µM, first compound 0.1 µM
[35] = second compound 3.16 µM, first compound 0.316 µM
[36] = second compound 3.16 µM, first compound 1 µM
[37] = second compound 10 µM, first compound 0.00316 µM
[38] = second compound 10 µM, first compound 0.01 µM
[39] = second compound 10 µM, first compound 0.0316 µM
[40] = second compound 10 µM, first compound 0.1 µM
[41] = second compound 10 µM, first compound 0.316 µM
[42] = second compound 10 µM, first compound 1 µM
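Also: spheroids exposed to agents for seven days before viability readout.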
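For viability, T/C in this document: 100% = DMSO vehicle control viability.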

- IC50 (curve of compound): < 31.6 nM
SMILES: CC(=O)OC12COC1CC(O)C1(C)C(=O)C(O)C3=C(C)C(OC(=O)C(O)C(NC(=O)OC(C)(C)C)c4ccccc4)CC(O)(C(OC(=O)c4ccccc4)C21)C3(C)C (stereo not drawn)
- viability, T/C (compound 0.0316 µM): 27.8% [middle of 4 runs]
- viability, T/C (compound 0.1 µM): 21% [middle of 4 runs]
- viability, T/C (compound 0.316 µM): 19.1% (2×) and 21.2% and 18.8%
- viability, T/C (compound 1 µM): 21.3% [middle of 4 runs]
- viability, T/C (compound 3.16 µM): 22.3% [middle of 4 runs]
- viability, T/C (compound 10 µM): 28.5% [middle of 4 runs]

- IC50 (curve of compound): > 10000 nM
SMILES: Cc1nc(N2CCC3(CC2)COC(C)C3N)c(CO)nc1Sc1ccnc(N)c1Cl (stereo not drawn)
- viability, T/C (compound 0.0316 µM): 105% (2×) and 103% and 97.3%
- viability, T/C (compound 0.1 µM): 103% (2×) and 106% and 97.7%
- viability, T/C (compound 0.316 µM): 109% [middle of 4 runs]
- viability, T/C (compound 1 µM): 108% [middle of 4 runs]
- viability, T/C (compound 3.16 µM): 86.9% [middle of 4 runs]
- viability, T/C (compound 10 µM): 85.4% [middle of 4 runs]

The next lines start with the compound.

SMILES: NC1c2ccccc2OC12CCN(c1cnc3c(N4CCCc5ncccc54)n[nH]c3n1)CC2 (stereo not drawn)
- viability, T/C (compound 0.0316 µM): 114% [middle of 4 runs]
- viability, T/C (compound 0.316 µM): 92.2% [middle of 4 runs]
- viability, T/C (compound 1 µM): 76.5% [middle of 4 runs]
- viability, T/C (compound 10 µM): 55.8% [middle of 4 runs]
- IC50 (curve of compound): > 10000 nM and 3160 nM and 6760 nM

SMILES: C=CC(=O)Nc1cc(Nc2nccc(-c3cn(C)c4ccccc34)n2)c(OC)cc1N(C)CCN(C)C + C#Cc1c(F)ccc2cc(O)cc(-c3ncc4c(N5CC6CCC(C5)N6)nc(OCC56CCCN5CC(F)C6)nc4c3F)c12
- IC50 [1]: > 1000 nM
- IC50 [2]: > 1000 nM
- IC50 [3]: 846 nM
- IC50 [4]: 587 nM
- IC50 [5]: 150 nM
- IC50 [6]: 150 nM
- viability, T/C [7]: 101%
- viability, T/C [8]: 109%
- viability, T/C [9]: 101%
- viability, T/C [10]: 106%
- viability, T/C [11]: 98.1%
- viability, T/C [12]: 68.4%
- viability, T/C [13]: 106%
- viability, T/C [14]: 108%
- viability, T/C [15]: 104%
- viability, T/C [16]: 110%
- viability, T/C [17]: 115%
- viability, T/C [18]: 74.5%
- viability, T/C [19]: 114%
- viability, T/C [20]: 110%
- viability, T/C [21]: 109%
- viability, T/C [22]: 109%
- viability, T/C [23]: 93.2%
- viability, T/C [24]: 42.7%
- viability, T/C [25]: 112%
- viability, T/C [26]: 109%
- viability, T/C [27]: 117%
- viability, T/C [28]: 82.4%
- viability, T/C [29]: 75.5%
- viability, T/C [30]: 31.4%
- viability, T/C [31]: 104%
- viability, T/C [32]: 124%
- viability, T/C [33]: 79.8%
- viability, T/C [34]: 59.6%
- viability, T/C [35]: 42.2%
- viability, T/C [36]: 35.9%
- viability, T/C [37]: 67.2%
- viability, T/C [38]: 71.2%
- viability, T/C [39]: 62.2%
- viability, T/C [40]: 56.5%
- viability, T/C [41]: 39.4%
- viability, T/C [42]: 21.7%

SMILES: O=C(c1ccc(F)c(F)c1Nc1ccc(I)cc1F)N1CC(O)([C@@H]2CCCCN2)C1 + C#Cc1c(F)ccc2cc(O)cc(-c3ncc4c(N5CC6CCC(C5)N6)nc(OCC56CCCN5CC(F)C6)nc4c3F)c12
- IC50 [1]: 87.7 nM
- IC50 [2]: 75.4 nM
- IC50 [3]: 55.9 nM
- IC50 [4]: 30.5 nM
- IC50 [5]: 19 nM
- IC50 [6]: < 3.16 nM
- viability, T/C [7]: 112%
- viability, T/C [8]: 98%
- viability, T/C [9]: 83.8%
- viability, T/C [10]: 47.4%
- viability, T/C [11]: 12.5%
- viability, T/C [12]: 5.72%
- viability, T/C [13]: 114%
- viability, T/C [14]: 112%
- viability, T/C [15]: 85.1%
- viability, T/C [16]: 39.3%
- viability, T/C [17]: 10%
- viability, T/C [18]: 6.39%
- viability, T/C [19]: 124%
- viability, T/C [20]: 111%
- viability, T/C [21]: 73.6%
- viability, T/C [22]: 25.3%
- viability, T/C [23]: 13%
- viability, T/C [24]: 5.14%
- viability, T/C [25]: 115%
- viability, T/C [26]: 96.3%
- viability, T/C [27]: 44.3%
- viability, T/C [28]: 24.3%
- viability, T/C [29]: 8.74%
- viability, T/C [30]: 5.44%
- viability, T/C [31]: 75.3%
- viability, T/C [32]: 64.9%
- viability, T/C [33]: 36.6%
- viability, T/C [34]: 23.4%
- viability, T/C [35]: 7.41%
- viability, T/C [36]: 3.17%
- viability, T/C [37]: 48.8%
- viability, T/C [38]: 35.3%
- viability, T/C [39]: 24.3%
- viability, T/C [40]: 14.4%
- viability, T/C [41]: 1.94%
- viability, T/C [42]: 1.77%
